Literature values as cited in patent US12662501B2, “Transcriptome In Vivo Analysis (TIVA) and Transcriptome In Situ Analysis (TISA)” (The Trustees of the University of Pennsylvania, priority 2014, dated 2026).

Key:
[1] = for Eop: 1MLCT Ru→bpy(π1*) transition; for λmax: 1MLCT band

SMILES | Eop [1] [cm⁻¹] | λmax [1] [nm] | ε (1P, 424 nm) [M⁻¹ cm⁻¹] | Φ (RuBi-caged GABA) | εΦ (RuBi-caged GABA, 1P, 424 nm)
C=CCn1cnnc1 [4-ally1-1,2,4-triazole] | 21190 | 472 |  |  | 
F[P-](F)(F)(F)(F)F.NCCCC(=O)[O-].[Ru+2].c1ccc(-c2ccccn2)nc1.c1ccc(-c2ccccn2)nc1.c1ccc(P(c2ccccc2)c2ccccc2)cc1 [RuBi-caged GABA] |  |  | 6400 | 0.2 | 1280
Cn1ccnc1.Cn1ccnc1.[Ru+2].c1ccc(-c2ccccn2)nc1.c1ccc(-c2ccccn2)nc1 [(N-MeIm)2] | 20700 | 483 |  |  | 
CCSC.CCSC.[Ru+2].c1ccc(-c2ccccn2)nc1.c1ccc(-c2ccccn2)nc1 [(MeSEt)2] | 23697 | 422 |  |  | 
CSc1ccccc1.CSc1ccccc1.[Ru+2].c1ccc(-c2ccccn2)nc1.c1ccc(-c2ccccn2)nc1 [(MeSPh)2] | 24752 | 404 |  |  | 
CC(=O)c1ccncc1.CC(=O)c1ccncc1.[Ru+2].c1ccc(-c2ccccn2)nc1.c1ccc(-c2ccccn2)nc1 [(4-AcPyr)2] | 22620 | 442 |  |  | 
N.N.[Ru+2].c1ccc(-c2ccccn2)nc1.c1ccc(-c2ccccn2)nc1 [(NH3)2] | 20410 | 490 |  |  | 
[Ru+2].c1ccc(-c2ccccn2)nc1.c1ccc(-c2ccccn2)nc1.c1ccc(P(c2ccccc2)c2ccccc2)cc1.c1ccc(P(c2ccccc2)c2ccccc2)cc1 [(PPh3)2] | 23870 | 419 |  |  | 
[Ru+2].c1ccc(-c2ccccn2)nc1.c1ccc(-c2ccccn2)nc1.c1ccncc1.c1ccncc1 [(Pyr)2] | 21980 | 455 |  |  | 
